Literature values in PubChem BioAssay AID1259409 (Chemical Carcinogenesis Research Information System (CCRIS), 2018).

Test system: rodent chemically induced tumor inhibition, incidence and multiplicity
Experiment: CCRIS tumor inhibitor studies
Details: Carcinogen: N-NITROBIS(2-OXOPROPYL)AMINE, 60559-38-4, Dose [Inhibitor]: 0.5 OR 1.0 MMOL/KG DIET DAILY STARTING 1 WK AFTER CARCINOGEN TREATMENT AND CONTINUING THROUGH THE END OF THE STUDY (STUD, Route [Inhibitor]: ORAL, Species: HAMSTER, Promoter: NONE USED

CC1=C(/C=C/C(C)=C/C=C/C(C)=C/C(=O)NCCO)C(C)(C)CCC1
tumour outcome (control, treated, inhibition, significance) (Strain/Sex: SYRIAN/FEMALE, Target Tissue: Type of Lesion: LIVER: BENIGN TUMOR, Dose [Carcinogen]: 40 MG/KG BW ONCE): 4/20 (20%), 17/35 (49%), -145%, not significant
tumour outcome (control, treated, inhibition, significance) (Strain/Sex: SYRIAN/FEMALE, Target Tissue: Type of Lesion: ND: TOTAL TUMOR, Dose [Carcinogen]: 10 MG/KG BW ONCE): 13/23 (56%), 21/37 (57%), -2%, not significant
tumour outcome (control, treated, inhibition, significance) (Strain/Sex: SYRIAN/FEMALE, Target Tissue: Type of Lesion: ND: TOTAL TUMOR, Dose [Carcinogen]: 40 MG/KG BW ONCE): 17/20 (85%), 33/34 (97%), -14%, not significant
tumour outcome (control, treated, inhibition, significance) (Strain/Sex: SYRIAN/FEMALE, Target Tissue: Type of Lesion: PANCREAS: DUCTULAR ADENOMA, Dose [Carcinogen]: 10 MG/KG BW ONCE): 5/23 (23%), 10/37 (27%), -17%, not significant
tumour outcome (control, treated, inhibition, significance) (Strain/Sex: SYRIAN/FEMALE, Target Tissue: Type of Lesion: PANCREAS: DUCTULAR ADENOMA, Dose [Carcinogen]: 40 MG/KG BW ONCE): 12/20 (60%), 27/33 (82%), -37%, not significant
tumour outcome (control, treated, inhibition, significance) (Strain/Sex: SYRIAN/FEMALE, Target Tissue: Type of Lesion: PANCREAS: DUCTULAR CARCINOMA, Dose [Carcinogen]: 40 MG/KG BW ONCE): 6/20 (30%), 8/33 (24%), 20%, not significant
tumour outcome (control, treated, inhibition, significance) (Strain/Sex: SYRIAN/MALE, Target Tissue: Type of Lesion: LIVER: BENIGN TUMOR, Dose [Carcinogen]: 40 MG/KG BW ONCE): 5/24 (21%), 26/42 (62%), -195%, p<0.05
tumour outcome (control, treated, inhibition, significance) (Strain/Sex: SYRIAN/MALE, Target Tissue: Type of Lesion: ND: TOTAL TUMOR, Dose [Carcinogen]: 10 MG/KG BW ONCE): 12/20 (54%), 31/39 (79%), -46%, not significant
tumour outcome (control, treated, inhibition, significance) (Strain/Sex: SYRIAN/MALE, Target Tissue: Type of Lesion: ND: TOTAL TUMOR, Dose [Carcinogen]: 40 MG/KG BW ONCE): 20/24 (83%), 41/42 (98%), -18%, not significant
tumour outcome (control, treated, inhibition, significance) (Strain/Sex: SYRIAN/MALE, Target Tissue: Type of Lesion: PANCREAS: DUCTULAR ADENOMA, Dose [Carcinogen]: 10 MG/KG BW ONCE): 3/22 (14%), 16/37 (43%), -207%, not significant
tumour outcome (control, treated, inhibition, significance) (Strain/Sex: SYRIAN/MALE, Target Tissue: Type of Lesion: PANCREAS: DUCTULAR ADENOMA, Dose [Carcinogen]: 40 MG/KG BW ONCE): 8/24 (33%), 34/42 (81%), -145%, not significant
